{"source": "patent US6071882A", "about": "“Means for treating prostate hypertrophy and prostate cancer” (ASTA Medica AG, priority 1998, dated 2000)", "key": {"BPH patients [1]": {"tested_on": "BPH patients", "assay": "Clinical therapy of BPH with Cetrorelix", "type": "in vivo", "method": "Cetrorelix is administered in a dose of 0.5 mg to 2 mg daily for 4 to 8 weeks for the therapy of BPH. A dose of 5 mg to 30 mg, dispensed once per week or every 10 days also over a time period of 4 to 8 weeks as well as one every two weeks or one injection per month of 20 mg to 60 mg can also decisively improve the clinical symptoms and signs. […] The prostate volume decreases by 20 to 40% during the treatment time of 4 to 8 weeks. […] In addition, at least 30% of the patients achieve an improvement of the urine flow of 6 ml/sec with this therapy. This is almost equivalent to an improvement like that associated with the golden standard operation, and in considerably shorter time. […] These clinical benefits continue for at least 3 to 6 months after therapy. This allows a long-term therapy of BPH with only an intermittent treatment of 2 to max. 4 injection cycles over 4 to 8 weeks."}, "BPH patients [2]": {"tested_on": "BPH patients", "details": "cited from earlier work"}, "[3]": {"tested_on": "Prostate carcinoma patients", "details": "500 μg every 12 hours for 6 weeks; cited from earlier work"}}, "note": "Non-standard residues stand in square brackets, D forms with d. Residues, ends and D or L forms follow the SMILES beside them. dPhe(4-Cl) = N[C@H](Cc1ccc(Cl)cc1)C(=O)O; d2Nal = N[C@H](Cc1ccc2ccccc2c1)C(=O)O; dCit = NC(=O)NCCC[C@@H](N)C(=O)O; d3Pal = N[C@H](Cc1cccnc1)C(=O)O", "data": [{"smiles": "CC(=O)N[C@H](Cc1ccc2ccccc2c1)C(=O)N[C@H](Cc1ccc(Cl)cc1)C(=O)N[C@H](Cc1cccnc1)C(=O)N[C@@H](CO)C(=O)N[C@@H](Cc1ccc(O)cc1)C(=O)N[C@H](CCCNC(N)=O)C(=O)N[C@@H](CC(C)C)C(=O)N[C@@H](CCCNC(=N)N)C(=O)N1CCC[C@H]1C(=O)N[C@H](C)C(N)=O", "note": "[Cetrorelix] (Ac-[d2Nal][dPhe(4-Cl)][d3Pal]SY[dCit]LRP[dA]-NH2)", "values": [{"measurement": "testosterone decrease", "setting": "BPH patients [1]; above those levels associated with castration", "result": "Submaximal decreases of testosterone occur"}, {"measurement": "limitations in sexual performance", "setting": "BPH patients [1]; human, in vivo", "result": "No limitations in sexual performance are observed"}, {"measurement": "quality of life", "setting": "BPH patients [1]; human, in vivo", "result": "significant improvements"}, {"measurement": "increase of the peak flow of the urine", "setting": "BPH patients [1]; treatment of 4 to 8 weeks", "result": "approximately 3 ml/sec"}, {"measurement": "patients achieving an improvement of the urine flow of 6 ml/sec", "setting": "BPH patients [1]; treatment of 4 to 8 weeks", "result": "at least 30%"}, {"measurement": "testosterone levels during treatment", "setting": "BPH patients [2]; 500 μg every 12 hours for 4 weeks, no castration values during last three weeks", "result": "fluctuated at subnormal levels"}, {"measurement": "testosterone levels, initially", "setting": "BPH patients [2]; 500 μg every 12 hours, all patients (BPH and prostate carcinoma), initially", "result": "lowering in testosterone levels to a castration level"}, {"measurement": "overall condition of the patient", "setting": "[3]", "result": "considerable improvement"}]}]}
